{"source": "patent US20100226888A1", "about": "“Ethanol Enhances the Complete Replication of Hepatitis C Virus: the Role of Acetaldehyde” (priority 2009, published 2010)", "key": {"NADH/NAD+ ratio": {"system": "NADH/NAD+ ratio", "assay": "NADH/NAD+ enzymatic NADH recycling assay", "assay_type": "cell-based, human", "quoted_text": "NADH and NAD+ levels were determined by enzymatic NADH recycling assay, using the NAD+/NADH Quantification Kit from Biovision, per manufacturers recommendations with an optional filtration step that used Microcon YM-10 (Millipore). […] The data were normalized by total protein content, determined with BCA assay kit from Pierce."}, "[1]": {"system": "HCV RNA replication complex (JFH1)", "experimental": "(§1) In vitro replication assay was carried out according to the modified method of Ali et al., as previously described (16, 17, 26). Briefly, cytoplasmic lysates were prepared, and the replication was allowed to proceed for 1 hr at 30° C. in the presence of α-^32P-CTP and actinomycin D. Then, RNA products were analyzed on a 1% formaldehyde agarose gel, which was subsequently analyzed, using Optiquant Cyclone 4.00 (Perkin Elmer).\n(§2) JFH1-transfected cells were exposed to ethanol for 5 hrs and then, the cytoplasmic lysates, containing the HCV replication complex, were isolated. Then, the in vitro RNA replication assay was performed in the presence of α-^32P-labeled CTP and actinomycin D, as previously described (17). JFH1 GND cell lysates were used as a negative control."}, "[2]": {"system": "HCV RNA replication complex (Con1 strain)", "conditions": "cells treated with ethanol for 5 hrs", "experimental": "as §1, §2"}, "[3]": {"system": "intracellular cholesterol", "assay": "Total intracellular cholesterol content in SgPC2 cells", "assay_type": "cell-based, human", "conditions": "24 h", "experimental": "FIG. 7. […] SgPC2 cells were treated for 24 h with (A and B) 0.2% ethanol, 5 μM acetaldehyde, 0.2% isopropyl alcohol, 2 mM acetone, 5 μM acetate±30 min pretreatment with (A) 5 μM lovastatin, 5 μM fluvastatin, (B) 5 μg/ml TOFA, 5 μg/ml cerulenin, or with (C) 2 mM β-mercaptopropionic acid (β-MPA). Then, HCV RNA levels were monitored by Northern blot and quantified by densitometry (n=3). D, SgPC2 cells, treated for 24 h with ethanol, acetaldehyde, acetone, and acetate±lovastatin, were monitored for cholesterol levels (n=3). Lovastatin was activated, as described, before use (29). *, indicates statistically significant difference for indicated sample sizes (p<0.05)"}, "[4]": {"system": "Con1 HCV subgenomic replicon", "assay": "Con1 subgenomic replicon HCV RNA in Clone B cells", "assay_type": "cell-based, hepatitis C virus", "conditions": "24 hrs, response compared with SgPC2 cells", "text": "(§3) The genotype 2a HCV constructs, pJFH1 (produces infectious virus particles), replicative-null pJFH1-GND, and subgenomic pSgJFH1-Luc (contains a luciferase reporter gene), are described elsewhere (23, 24). Subgenomic HCV replicons are bicistronic constructs that express only the nonstructural proteins of HCV under the control of encephalocarditis virus IRES; neomycin resistance or firefly luciferase gene is under the control of the HCV IRES (15, 22, 24). These replicons support HCV RNA replication but no virus is formed in cell culture. Huh7 cell clones (SgPC2 cells, Clone B) supporting continuous replication of subgenomic HCV replicon of genotype 1b (Con1 sequence) were also used (17, 22).\n(§4) Intracellular RNA extraction and northern blots were carried out, as described (16, 17). DNA probes were prepared from nucleotides (“nt.”) 4128-8273 or 358-2816 of JFH1, generated with ScaI and ApaL I, respectively, or nt. 3669 to 6016 of the Con1 subgenomic replicons. Images were quantified by densitometry, using Optiquant Cyclone 4.00 (Perkin Elmer), and data were normalized by glyceraldehyde 3-phosphate dehydrogenase (GAPDH) mRNA content."}, "[5]": {"system": "Huh7 human hepatoma cells", "conditions": "data not shown", "experimental": "NADH and NAD+ levels were determined by enzymatic NADH recycling assay, using the NAD+/NADH Quantification Kit from Biovision, per manufacturers recommendations with an optional filtration step that used Microcon YM-10 (Millipore). Total ATP content was measured using Somatic Cell ATP Assay Kit from Sigma-Aldrich. The data were normalized by total protein content, determined with BCA assay kit from Pierce.\nTo examine whether ethanol increased the complete replication of HCV, positive-sense genomic JFH1 RNA was produced by in vitro transcription, using T7 RNA polymerase, and transfected into Huh7 human hepatoma cells. Then, the transfected cells were exposed to 0-1.0% (v/v; 0-172 mM) ethanol once daily with a change of medium each day for 48 hrs. Then, the cells and the cell culture medium were harvested and analyzed for intracellular and RNase A-resistant extracellular HCV RNA's by a combination of Northern blots and qRT-PCR."}, "HCV IRES": {"system": "HCV IRES", "conditions": "ethanol, data not shown", "experimental": "as §2"}, "CYP2E1": {"system": "CYP2E1", "conditions": "daily 0.2% (v/v) ethanol for 48 hrs, JFH1 cells", "text": "Cells were sonicated in Laemmli buffer, and proteins were separated on 7-20% Tris-glycine gel (Invitrogen) or 12.5% SDS-polyacrylamide gel and western blotted, using mouse monoclonal anti-NS5A (Biodesign, Inc.), goat anti-actin, and the corresponding horseradish peroxidase-conjugated secondary antibodies (Santa Cruz Laboratories) with an ECL Plus kit (Amersham Biosciences). Images were obtained and quantified, using 152000R (Kodak)."}, "JFH1 HCV (genotype 2a)": {"system": "JFH1 HCV (genotype 2a)", "assay_type": "cell-based, hepatitis C virus", "conditions": "for intracellular JFH1 HCV RNA levels: 48 hrs"}, "[6]": {"system": "Con1 subgenomic HCV replicon (genotype 1b)", "assay": "Con1 subgenomic replicon HCV RNA in SgPC2 cells (Northern blot)", "assay_type": "cell-based, hepatitis C virus", "conditions": "0.1 to 1% ethanol, 24 hrs", "text": "as §3\n(§5) The in vitro transcription, and transfection of HCV RNA, and Huh7 human hepatoma cell culture were performed as previously described (17). For experiments involving stable clones, cells were cultured in medium supplemented with 0.4-0.5 mg/mL G418, and G418 was removed from cell culture medium one day prior to cell treatments, which were performed as described in Results. For the in vitro infectivity assays, 2 ml of the extracellular medium from JFH1 RNA-transfected cells was used to inoculate naive Huh7 or Huh7.5 cells with 3 ml of fresh medium, as described (23, 25). Treatments were initiated 24 hours after infection and the cells were harvested after another 24 or 48 hrs.\nas §4"}, "JFH1 virus": {"system": "JFH1 virus", "assay": "HCV RNA in naive Huh7 or Huh7.5 cells inoculated with JFH1 virus-containing medium", "assay_type": "cell-based, hepatitis C virus", "experimental": "as §5\nThe total intracellular RNA was obtained from cells using Trizol (Invitrogen). To obtain extracellular HCV RNA, cell culture medium samples were first treated with RNase A (100 μg/ml) for 30 min at room temperature, then RNA was extracted using Trizol LS and glycogen as a carrier. HCV RNA was quantified by qRT-PCR as described (17, 23). For JFH1, the primer sequences were 5′ […] 3′ (nt 146 to 164; forward, SEQ ID NO.: 1), and 5′ […] 3′ (nt 277 to 295; reverse, SEQ ID NO.: 2), and the sequence of the fluorogenic probe, labeled with 6-FAM and TAMRA (Biosearch Technologies, Inc.), was 5′ […] 3′ (nt 168 to 188, SEQ ID NO.: 3). The primer and probe sequences for qRT-PCR analysis of Con1 RNA's were described previously (17). Standard curves were generated using in vitro-transcribed HCV RNA's. Intracellular HCV RNA levels were normalized by 18 S rRNA or GAPDH mRNA."}, "[7]": {"system": "SgJFH1-Luc subgenomic HCV replicon (genotype 2a)", "assay_type": "cell-based, hepatitis C virus", "text": "as §3\nAfter various treatments, SgJFH1 Luc RNA-transfected cells were lysed with 1× Reporter Lysis Buffer, and the luciferase activity was determined using Luciferase Reporter Assay Kit (Promega Corp.) (24). Luciferase activities were normalized by total protein content, determined with bicinchoninic acid (BCA) assay kit from Pierce.\nTo test whether the JFH1 RNA replication was also affected by ethanol, Huh7 cells were transfected with JFH1 SgJFH1-Luc RNA and exposed the cells to ethanol for 48 hours. Then, HCV replication was monitored by measuring the firefly luciferase activity (24)."}, "intracellular GSH": {"system": "intracellular GSH", "assay": "Intracellular GSH content in Huh7 cells", "assay_type": "cell-based, human", "text": "Hepatic ethanol, particularly CYP2E1-mediated, metabolism is known to generate ROS (31). […] First, to examine the effects of endogenously generated ROS, L-buthionine S,R-sulfoximine (BSO) was used. BSO depletes glutathione (GSH), a major endogenous antioxidant, by inhibiting its de novo synthesis and therefore, would amplify the effects of endogenous ROS, generated during normal cellular metabolism and in response to HCV (5). BSO decreases intracellular GSH content by approximately 80±12% in Huh7 cells (P<0.05)."}}, "note": "Where two headings read alike, the source gives them in different places."}
{"smiles": "CCO", "note": "[ethanol]", "values": [{"measurement": "NADH/NAD+ ratio", "setting": "NADH/NAD+ ratio; SgPC2 cells, 3 h, 0.2% ethanol, 5 μM acetaldehyde, 5 μM acetate, 0.2% isopropyl alcohol, 2 mM acetone, 25 mM tert-butanol", "result": "increases"}, {"measurement": "increase of NADH/NAD+ ratio", "setting": "NADH/NAD+ ratio; ethanol, within 3 hrs", "result": "76.2±6.1", "unit": "%"}, {"measurement": "rate of HCV RNA replication in vitro", "setting": "[1]; cells exposed to ethanol for 5 hrs", "result": "significantly increased"}, {"measurement": "rate of HCV RNA replication in vitro", "setting": "[1]; cells exposed to ethanol for ½, 1, or 3 hrs, data not shown", "result": "no significant increase"}, {"measurement": "in vitro replication rate of Con1 strain", "setting": "[2]", "result": "accelerated"}, {"measurement": "total intracellular cholesterol content", "setting": "[3]", "result": "increased"}, {"measurement": "HCV RNA in Clone B cells", "setting": "[4]", "result": "responded similarly"}, {"measurement": "overall ATP levels", "setting": "[5]", "result": "not significantly perturbed"}, {"measurement": "cytotoxicity", "setting": "[5]; ethanol concentrations used, cell morphology and cellular ATP content", "result": "did not induce any cytotoxicity"}, {"measurement": "HCV IRES activity", "setting": "HCV IRES", "result": "did not increase"}, {"measurement": "CYP2E1 expression", "setting": "CYP2E1", "result": "enhanced"}, {"measurement": "intracellular JFH1 HCV RNA levels", "setting": "JFH1 HCV (genotype 2a); 0.2% (v/v) ethanol once daily", "result": "237±40 % of untreated controls"}, {"measurement": "intracellular JFH1 HCV RNA levels", "setting": "JFH1 HCV (genotype 2a); 0.5% (v/v) ethanol once daily", "result": "305±61 % of untreated controls"}, {"measurement": "extracellular HCV RNA (virus secretion)", "setting": "JFH1 HCV (genotype 2a); ethanol treatment 48 hrs, RNase A-resistant RNA in medium", "result": "significantly elevated"}, {"measurement": "genotype 1b HCV RNA", "setting": "[6]", "result": "significant increases"}, {"measurement": "HCV replication in RIG-1-defective Huh7.5 cells", "setting": "JFH1 virus; FIG. 5, also data not shown", "result": "increase"}, {"measurement": "HCV RNA in Huh7 cells infected with cell culture-generated JFH1 virion", "setting": "JFH1 virus; ethanol treatment 48 hrs", "result": "increased"}, {"measurement": "luciferase activity (JFH1 RNA genome replication)", "setting": "[7]", "result": "increased"}]}
{"smiles": "CCCCS(=N)(=O)CCC(N)C(=O)O", "note": "[BSO, L-buthionine S,R-sulfoximine]", "values": [{"measurement": "decrease of intracellular GSH content", "setting": "intracellular GSH", "result": "approximately 80±12%"}, {"measurement": "extracellular JFH1 RNA levels", "setting": "JFH1 HCV (genotype 2a); BSO, 24 hrs", "result": "significantly decreased"}, {"measurement": "intracellular JFH1 RNA levels", "setting": "JFH1 HCV (genotype 2a); BSO, 24 hrs", "result": "significantly decreased"}, {"measurement": "subgenomic JFH1 RNA replication", "setting": "[7]; BSO alone or with 0.25 mU/mL GO + glucose, 24 hr", "result": "suppressed"}]}
